# Results as given in patent US10233209B2, “Inhibitors of the farnesoid x receptor and uses in medicine” (The United States of America, as represented by the …, priority 2013, dated 2019).
# Entries after “also recorded” stand apart in the source; their conditions may differ.
# What was measured:
# [1] = target: T1, human FXR (Homo sapiens, UniProt Q96RI1); experiment: human FXR competition assay (GAL4-FXR chimeric receptor luciferase, HEK293T); assay type: cell-based; settings: in the presence of GW4064
# T1 construct: expressed in transfected cells; host or cells: HEK293T
# T1 sequence (Q96RI1 262-486 limits assumed): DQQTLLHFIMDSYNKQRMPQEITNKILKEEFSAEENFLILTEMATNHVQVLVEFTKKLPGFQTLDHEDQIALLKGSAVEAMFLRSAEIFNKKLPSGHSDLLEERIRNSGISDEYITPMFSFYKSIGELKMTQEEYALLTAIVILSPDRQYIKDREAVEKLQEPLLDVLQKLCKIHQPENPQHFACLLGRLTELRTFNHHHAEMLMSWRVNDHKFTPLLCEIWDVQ
# Procedure: Luciferase detection was conducted using the Dual Luciferase Reporter Assay kit (Promega Corp., Madison, Wis.) and a Tecan GeniosPro luminescent plate reader (Research Triangle Park, N.C.).
# Luciferase detection was conducted using the Dual Luciferase Reporter Assay kit (Promega; Madison, Wis.) and a Tecan GeniosPro™ luminescent plate reader (Research Triangle Park, N.C.).
# [2] = target: T2, human FXR (Homo sapiens, UniProt Q96RI1); experiment: PGL4-Shp-TK luciferase assay in Caco-2 cells transfected with human FXR and human ASBT; assay type: cell-based; settings: 100 μM TCA
# T2 construct: expressed in transfected cells; host or cells: Caco-2
# T2 sequence (Q96RI1 1-486): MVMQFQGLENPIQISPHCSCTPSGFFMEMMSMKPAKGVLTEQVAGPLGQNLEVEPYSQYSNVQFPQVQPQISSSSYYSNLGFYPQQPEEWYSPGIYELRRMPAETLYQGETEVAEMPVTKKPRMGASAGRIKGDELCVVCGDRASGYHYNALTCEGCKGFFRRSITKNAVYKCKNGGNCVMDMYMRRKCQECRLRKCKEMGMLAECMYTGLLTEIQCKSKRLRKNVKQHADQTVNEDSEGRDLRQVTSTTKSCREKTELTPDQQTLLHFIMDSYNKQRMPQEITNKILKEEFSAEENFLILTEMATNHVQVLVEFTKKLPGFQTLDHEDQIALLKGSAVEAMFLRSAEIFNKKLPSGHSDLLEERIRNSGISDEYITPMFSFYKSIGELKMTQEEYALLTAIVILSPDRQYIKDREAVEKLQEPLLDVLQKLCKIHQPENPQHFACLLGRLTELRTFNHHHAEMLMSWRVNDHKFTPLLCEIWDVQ
# Text: (§1) The PGL4-Shp-TK firefly luciferase construct and human Fxr expression plasmid were provided by Grace L. Guo of Rutgers University. The human Asbt expression plasmid was provided by Paul A. Dawson of Wake Forest University School of Medicine. The plasmids were transfected into cells using X-[…]™ HP DNA Transfection Reagent (Roche). The cells were lysed, and luciferase activities measured with a DUAL-LUCIFERASE™ assay kit (Promega). Firefly luciferase activity was normalized to Renilla luciferase activity.
# Caco-2 cells were transfected with PGL4-Shp-TK firefly luciferase construct, the control plasmid phRL-SV40, and human FXR and human ASBT expression plasmids. After 24 h, the cells were treated with 100 μM TCA, TβMCA, or TβMCA with […] 100 μM TCA. The cells were lysed, and luciferase activities measured as describe herein. The results are depicted in FIG. 2.
# [3] = target: T3, FXR (Mus musculus, UniProt Q60641); experiment: PGL4-Shp-TK luciferase assay in primary hepatocytes; assay type: cell-based; settings: primary hepatocytes from Fxr^+/+ mice; 100 μM TCA
# T3 construct: Primary hepatocytes from Fxr^+/+ and Fxr^−/− mice were transfected with PGL4-Shp-TK firefly luciferase construct and the control plasmid phRL-SV40; endogenous in cells; host or cells: primary mouse hepatocytes (Fxr+/+; Fxr-/- as negative control)
# T3 sequence (Q60641 1-488): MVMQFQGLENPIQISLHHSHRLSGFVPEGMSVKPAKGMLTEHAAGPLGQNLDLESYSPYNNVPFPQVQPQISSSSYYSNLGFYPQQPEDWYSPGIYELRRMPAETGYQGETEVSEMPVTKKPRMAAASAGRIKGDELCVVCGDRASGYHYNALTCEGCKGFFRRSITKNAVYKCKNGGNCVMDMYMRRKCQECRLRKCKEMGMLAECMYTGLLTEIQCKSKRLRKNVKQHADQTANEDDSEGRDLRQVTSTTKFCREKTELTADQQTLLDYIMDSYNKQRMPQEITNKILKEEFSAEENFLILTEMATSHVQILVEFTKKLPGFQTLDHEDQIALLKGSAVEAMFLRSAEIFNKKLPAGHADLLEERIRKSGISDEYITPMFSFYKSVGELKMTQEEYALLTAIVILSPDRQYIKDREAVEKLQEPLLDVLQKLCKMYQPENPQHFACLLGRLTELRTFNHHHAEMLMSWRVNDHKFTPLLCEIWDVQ
# Text: as §1
# Primary hepatocytes from Fxr^+/+ and Fxr^−/− mice were transfected with PGL4-Shp-TK firefly luciferase construct and the control plasmid phRL-SV40. After 24 h, the cells were treated with 100 μM taurocholic acid (TCA), TβMCA, or TβMCA with TCA. The cells were lysed, and luciferase activities measured as describe herein. The results are depicted in FIG. 1.
# [4] = target: T3, FXR; experiment: FXR signaling in the ileum (Shp, Fgf15 mRNA); assay type: in vivo; settings: mice treated with antibiotic on HFD for three days; TCA and TβMCA 400 mg/kg each, oral
# Text: High-fat diet (HFD) (60% kcal consisting of fat) was purchased from Bioserv. […] Fxr^fl/fl and Fxr^ΔIE (Kim et al., J. Lipid Res. 48:2664-2672, 2007) mice were backcrossed with C57BL/6N mice for over 10 generations. For the antibiotic (the combination of bacitracin, neomycin, and streptomycin) study, male C57BL/6N mice from 6 weeks of age were fed a high-fat diet (“HFD) and administered 0.1% (w/v) of each compound (the combination of bacitracin, neomycin, and streptomycin) in the drinking water. […] For TβMCA in vivo, male C57BL/6N mice from 6 weeks of age were fed a HFD and treated with the antibiotics (0.1% of each compound of bacitracin, neomycin, and streptomycin combination) for 3 days. […] Cumulative food intake and TEEbal were measured for 1 week in vehicle and Gly-MCA-treated mice from 6 to 7 weeks of HFD. TEEbal was measured as previously described (Ravussin et al., Int. J. Obesity 37:399-403, 2013).
# The mucosa of intestine was gently scraped and liver was taken and both were flash frozen in liquid nitrogen and stored at −80° C. until RNA was prepared. […] Measured mRNA levels were normalized to those of 18S ribosomal RNA and expressed as fold change relative to those of control group.
smiles,measurement,setting,value
"C[C@H](CCC(=O)NCCS(=O)(=O)O)[C@H]1CC[C@H]2[C@@H]3[C@@H](O)[C@@H](O)[C@@H]4C[C@H](O)CC[C@]4(C)[C@H]3CC[C@]12C [TβMCA, tauro-β-muricholic acid]","FXR activity induced by synthetic agonist GW4064 (luciferase, normalized to Renilla)",[1],inhibited FXR
same,FXR activation by TCA (luciferase activity),[2],antagonizes FXR activation; also recorded: antagonized FXR activation by TCA
same,FXR activation by TCA (luciferase activity),[3],antagonizes farnesoid X receptor (FXR) activation; also recorded: antagonized FXR activation by TCA
same,Shp and Fgf15 induction by the FXR agonist TCA in the ileum,[4],significantly blunted
